Laboratory results taken from patent publication US8519096B2, “Citrullinated peptides for diagnosing and prognosing rheumatoid arthritis” (Nestec S.A., priority 2009, dated 2013).
Non-standard residues stand in square brackets, D forms with d. No end group written: not given here. *: point of attachment. Biotin = O=C1N[C@H]2[C@H](CS[C@H]2CCCCC(=O)*)N1; Cit = NC(=O)NCCC[C@H](N)C(=O)O

Test system: IgG ACPAs
Assay: ACPA ELISA with anti-human IgG secondary antibody
Type: binding
Settings: for IgG ACPA positive response (strong/moderate): Example 7, FIGS. 20-27
Experimental: The synthetic citrullnated peptides set forth in Example 6, which were designed from synovial proteins, were synthesized and evaluated for their ability to diagnose and/or prognose RA. […] The peptides were then tested for IgG ACPA dose-response in samples of synovial fluid taken from both healthy patients and patients with RA.

Row | Substance | IgG ACPA positive response (strong/moderate) | sensitivity for autoantibodies of the IgG class (in words) | EC50 of the INOVA CCP IgG assay relative to EC50 of the peptide assay (FIG. 4, IgG ACPAs) [fold]
1 | Apo a-6: synthetic citrullinated peptide derived from Apolipoprotein a, Table 8 (Biotin-HWHR[Cit]IPLYYPNAGLT[Cit]AGLTRNYS[Cit]N-NH2; SMILES CC[C@H](C)[C@H](NC(=O)[C@H](CCCNC(N)=O)NC(=O)[C@H](CCCNC(=N)N)NC(=O)[C@H](Cc1c[nH]cn1)NC(=O)[C@H](Cc1c[nH]c2ccccc12)NC(=O)[C@H](Cc1c[nH]cn1)NC(=O)CCCC[C@@H]1SC[C@@H]2NC(=O)N[C@@H]21)C(=O)N1CCC[C@H]1C(=O)N[C@@H](CC(C)C)C(=O)N[C@@H](Cc1ccc(O)cc1)C(=O)N[C@@H](Cc1ccc(O)cc1)C(=O)N1CCC[C@H]1C(=O)N[C@@H](CC(N)=O)C(=O)N[C@@H](C)C(=O)NCC(=O)N[C@@H](CC(C)C)C(=O)N[C@H](C(=O)N[C@@H](CCCNC(N)=O)C(=O)N[C@@H](C)C(=O)NCC(=O)N[C@@H](CC(C)C)C(=O)N[C@H](C(=O)N[C@@H](CCCNC(=N)N)C(=O)N[C@@H](CC(N)=O)C(=O)N[C@@H](Cc1ccc(O)cc1)C(=O)N[C@@H](CO)C(=O)N[C@@H](CCCNC(N)=O)C(=O)N[C@@H](CC(N)=O)C(N)=O)[C@@H](C)O)[C@@H](C)O) | strong | – | –
2 | T9α1-4: synthetic citrullinated peptide derived from collagen (Coll.T9α1), Table 8 (Biotin-QHIKQVSM[Cit]VIQEHFAEMAASLK[Cit]G-NH2; SMILES CC[C@H](C)[C@H](NC(=O)[C@H](Cc1c[nH]cn1)NC(=O)[C@H](CCC(N)=O)NC(=O)CCCC[C@@H]1SC[C@@H]2NC(=O)N[C@@H]21)C(=O)N[C@@H](CCCCN)C(=O)N[C@@H](CCC(N)=O)C(=O)N[C@H](C(=O)N[C@@H](CO)C(=O)N[C@@H](CCSC)C(=O)N[C@@H](CCCNC(N)=O)C(=O)N[C@H](C(=O)N[C@H](C(=O)N[C@@H](CCC(N)=O)C(=O)N[C@@H](CCC(=O)O)C(=O)N[C@@H](Cc1c[nH]cn1)C(=O)N[C@@H](Cc1ccccc1)C(=O)N[C@@H](C)C(=O)N[C@@H](CCC(=O)O)C(=O)N[C@@H](CCSC)C(=O)N[C@@H](C)C(=O)N[C@@H](C)C(=O)N[C@@H](CO)C(=O)N[C@@H](CC(C)C)C(=O)N[C@@H](CCCCN)C(=O)N[C@@H](CCCNC(N)=O)C(=O)NCC(N)=O)[C@@H](C)CC)C(C)C)C(C)C) | strong | – | –
3 | Biotin-GGGP[Cit]VVE[Cit]HQSAGGGTK[Cit]GHAKSRPV[Cit]GIHT [[Arg^25]Cit-α32] | – | particularly high sensitivity | 143
4 | MLBS-1: synthetic citrullinated peptide derived from myeloblastin, Table 8 (Biotin-HS[Cit]PYMASLQM[Cit]GNPGSH-NH2; SMILES CSCC[C@H](NC(=O)[C@H](Cc1ccc(O)cc1)NC(=O)[C@@H]1CCCN1C(=O)[C@H](CCCNC(N)=O)NC(=O)[C@H](CO)NC(=O)[C@H](Cc1c[nH]cn1)NC(=O)CCCC[C@@H]1SC[C@@H]2NC(=O)N[C@@H]21)C(=O)N[C@@H](C)C(=O)N[C@@H](CO)C(=O)N[C@@H](CC(C)C)C(=O)N[C@@H](CCC(N)=O)C(=O)N[C@@H](CCSC)C(=O)N[C@@H](CCCNC(N)=O)C(=O)NCC(=O)N[C@@H](CC(N)=O)C(=O)N1CCC[C@H]1C(=O)NCC(=O)N[C@@H](CO)C(=O)N[C@@H](Cc1c[nH]cn1)C(N)=O) | moderate | – | –
